# Source: ChEMBL document CHEMBL3044972, “Synthesis, anti-inflammatory, and cytotoxicity evaluation of 9,10-dihydroanthracene-9,10-,-succinimide and bis-succinimide derivatives” (2013)
# How the values were obtained:
# Assay type in all cases: functional
# NCI-H522 = assay: Cytotoxicity against Homo sapiens (human) NCI-H522 cells assessed as growth inhibition at 10 uM after 48 hr by SRB assay; conditions: NCI-H522, 48 h, read-out: GI
# Rattus norvegicus = assay: Anti-inflammatory activity against albino Charles Foster Rattus norvegicus (rat) assessed as inhibition of carrageenan-induced paw edema at 50 mg/kg, po administered 30 min prior to carrageenan injection measured after 1-3 hr by plethysmometer; set-up: scale not given: the % may be the effect or the level left
# HCT-15 = assay: Cytotoxicity against Homo sapiens (human) HCT15 cells assessed as growth inhibition at 10 uM after 48 hr by SRB assay; conditions: HCT-15, 48 h, read-out: GI
# T47D = assay: Cytotoxicity against Homo sapiens (human) T47D cells assessed as growth inhibition at 10 uM after 48 hr by SRB assay; conditions: read-out: GI
# HepG2 = assay: Cytotoxicity against Homo sapiens (human) HepG2 cells assessed as growth inhibition at 10 uM after 48 hr by SRB assay; conditions: HepG2, 48 h, read-out: GI
# PA-1 = assay: Cytotoxicity against Homo sapiens (human) PA1 cells assessed as growth inhibition at 10 uM after 48 hr by SRB assay; conditions: PA-1, 48 h, read-out: GI
Compound,inhibition of growth at 10 µM (NCI-H522) [%],Activity (Rattus norvegicus) [%],inhibition of growth at 10 µM (HCT-15) [%],inhibition of growth at 10 µM (T47D) [%],inhibition of growth at 10 µM (HepG2) [%],inhibition of growth at 10 µM (PA-1) [%]
O=C1C2C3c4ccccc4C(c4ccccc43)C2C(=O)N1CN1CCOCC1 (configuration not stated),24,39,22,20,34,24
O=C1C2C3c4ccccc4C(c4ccccc43)C2C(=O)N1Cc1ccco1 (configuration not stated),25,15,15,40,38,27
O=C1C2C3c4ccccc4C(c4ccccc43)C2C(=O)N1Cc1ccccn1 (configuration not stated),20,14,7,26,35,47
O=C1C2C3c4ccccc4C(c4ccccc43)C2C(=O)N1CC1CCCO1 (configuration not stated),30,34,22,23,55,31
O=C1C2C3c4ccccc4C(c4ccccc43)C2C(=O)N1CCN1CCNCC1 (configuration not stated),,31,,,,
O=C1C2C3c4ccccc4C(c4ccccc43)C2C(=O)N1CC1CCNCC1 (configuration not stated),25,35,11,17,32,26
O=C1C2C3c4ccccc4C(c4ccccc43)C2C(=O)N1Cc1ccccc1 (configuration not stated),62,37,12,22,52,43
O=C1C2C3c4ccccc4C(c4ccccc43)C2C(=O)N1C1CC1 (configuration not stated),24,23,19,21,53,37
CC1(C)CC(N2C(=O)C3C4c5ccccc5C(c5ccccc54)C3C2=O)CC(C)(C)N1 (configuration not stated),15,32,20,10,40,31
O=C1C2C3c4ccccc4C(c4ccccc43)C2C(=O)N1Cc1ccncc1 (configuration not stated),27,37,12,24,61,21
O=C1C2C3c4ccccc4C(c4ccccc43)C2C(=O)N1CCN1CCCC1 (configuration not stated),13,28,14,7,47,36
O=C1C2C3c4ccccc4C(c4ccccc43)C2C(=O)N1CCN1CCCCC1 (configuration not stated),23,27,6,20,38,25
O=C1CCCN1CCN1C(=O)C2C3c4ccccc4C(c4ccccc43)C2C1=O (configuration not stated),15,17,16,26,41,33
O=C1C2C3c4ccccc4C(c4ccccc43)C2C(=O)N1CCCn1ccnc1 (configuration not stated),32,27,30,28,48,40
O=C1C2C3c4ccccc4C(c4ccccc43)C2C(=O)N1Nc1ccccc1 (configuration not stated),52,11,11,13,52,46
O=C1C2C3c4ccccc4C(c4ccccc43)C2C(=O)N1Nc1ccccn1 (configuration not stated),27,38,4,1,37,13
O=C1C2C3c4ccccc4C(c4ccccc43)C2C(=O)N1CCN1C(=O)C2C3c4ccccc4C(c4ccccc43)C2C1=O (configuration not stated),11,20,10,5,29,9
O=C1C2C3c4ccccc4C(c4ccccc43)C2C(=O)N1CCCN1C(=O)C2C3c4ccccc4C(c4ccccc43)C2C1=O (configuration not stated),17,33,27,24,45,6
O=C1C2C3c4ccccc4C(c4ccccc43)C2C(=O)N1CCCCN1C(=O)C2C3c4ccccc4C(c4ccccc43)C2C1=O (configuration not stated),23,25,26,19,25,37
CC(CN1C(=O)C2C3c4ccccc4C(c4ccccc43)C2C1=O)N1C(=O)C2C3c4ccccc4C(c4ccccc43)C2C1=O (configuration not stated),20,22,9,2,41,14
O=C1C2C3c4ccccc4C(c4ccccc43)C2C(=O)N1CCCN1CCN(CCCN2C(=O)C3C4c5ccccc5C(c5ccccc54)C3C2=O)CC1 (configuration not stated),17,15,10,33,33,16
C[C@@H]1C[C@@H]([C@H](O)CC2CC(=O)NC(=O)C2)C(=O)[C@@H](C)C1 [CYCLOHEXIMIDE],13,,12,9,15,32
O=P1(N(CCCl)CCCl)NCCCO1 (configuration not stated) [CYCLOPHOSPHAMIDE ANHYDROUS],9,,5,12,14,15
O=c1[nH]cc(F)c(=O)[nH]1 [FLUOROURACIL],18,,15,10,28,18
CC(C)Cc1ccc(C(C)C(=O)O)cc1 (configuration not stated) [IBUPROFEN],,39,,,,
